These results are taken from US20250145600A1, “2-((4-((S)-2-(4-CHLORO-2-FLUOROPHENYL)-2-METHYLBENZO[D][1,3]DIOXOL-4-YL)PIPERIDIN-1-YL)METHYL)-1-(((S)-OXETAN-2-YL)METHYL)-1H-IMIDAZOLE DERIVATIVES AS ACTIVATORS OF THE GLP1 RECEPTOR FOR THE TREATMENT OF OBESITY” (Novartis AG, priority 2022, published 2025).

One may read the Emax as the greatest response seen or fitted, relative to the assay's reference. Broadly, the EC50 is the concentration needed to bring the measured effect to its halfway point.

This experiment addresses human GLP1R (hGLP1R) (Homo sapiens, UniProt P43220). The experiment can be described thus: Human GLP1R cAMP agonist assay (GloSensor cAMP Assay). The conditions noted are these: HEK293-SNAP-hGLP1R-GloSensor cells; for Emax: cAMP activity as percent of GLP1 (7-36) EC100 control; for EC50: intracellular cAMP, 12 min at rt. Type of experiment: cell-based. Here is the method:
Compounds of formula (I) according to the invention were tested in the following cellular assays that measure the intracellular cAMP concentration, beta-arrestin recruitment and receptor internalization. The cAMP is generated by the activation of GLP1R. The extent to which the GLP1R is internalized into the cell and away from the plasma membrane following activation is also shown in Table 2. EC50 for each assay is defined as the concentration of the compound that leads to half of the maximum response (after baseline correction). Emax is defined as the maximum response observed for the test compound, normalized to the maximum response observed for the endogenous ligand (GLP1(7-36)) to GLP1R.
Human GLP1R cAMP Agonist Assay
The agonist activity of compounds was determined using the GloSensor™ cAMP Assay (Promega Corp.), which measures changes in the intracellular concentration of cAMP after ligand activation of GPCRs. The assay uses a biosensor encoded by pGloSensor™-22F cAMP plasmid (Promega, cat #E2301) with cAMP binding domains fused to a mutant form of Photinus pyralis luciferase. Binding to cAMP causes conformational changes that promote large increases in light output, which can be measured by a luminescence detector. HEK293-SNAP-hGLP1R-GloSensor cells stably overexpressing the human GLP1 receptor (hGLP1R) and pGloSensor™-22F were seeded in white 384-well poly-D-Lysine coated plates (Greiner Bio One, cat #781945) in CO2-independent media (Gibco cat #18045-088 with 1.0% FBS, 2 mM L-glutamine, penicillin and streptomycin) and incubated overnight at 37° C., 5% CO2 with humidity. The assay was started the following morning by adding an equal volume of CO2-independent media containing 4% v/v dilution of the GloSensor substrate (Promega, cat #E1291) to all wells. The cell plate was incubated at rt for 2 h in the dark. The Biomek 7 (Beckman Coulter) instrument was used for the liquid handling steps. To generate duplicate dose response curves, 3-fold serially diluted compounds were added in to the cell assay plate to a final volume of 60 μL with final concentrations ranging from 30 μM through 0.06 μM in CO2-independent media containing 0.1% BSA, 0.5 mM IBMX and 0.4% DMSO. In the same plate and assay buffer as the tested compounds, were EC100 control wells containing GLP1 (7-36) peptide (Bachem, cat #H-6795) at a final concentration of 2 nM and also EC0 control wells containing no peptide. This plate was incubated at rt in the dark for 12 min after adding the compounds to the cells. Luminescence was then measured with an Envision 2104 Multilabel reader with “TRF Light Unit, 337 nm” (PerkinElmer) using the Ultra-Sensitive protocol setting “384-well US luminescence detector” with the 384-well luminescence aperture, 0.1 seconds per well. cAMP activity was calculated as percent of the GLP1 (7-36) EC100 control wells: [(sample signal−mean EC0 signal)/(mean EC100 of GLP1 (7-36) signal−mean EC0 signal)}*100. Curve fitting for EC50 determinations was performed in the Helios module of the software package DAVID. The 4-parameter logistic model, Hill slope was used: y=Ainf+(A0−Ainf)/(1+(x/AC50)^Hill Slope) where y is the functional response; x is the compound concentration; A0 is the minimum value (at 0 dose); Ainf is the maximum value (at infinite dose); AC50 corresponds to the point of inflection (i.e. the point on the sigmoid shaped curve halfway between A0 and Ainf). The EC50 value was represented by the AC50 value calculated from Helios in μM. Emax is the maximal activity detected within the concentration range, derived from the fitted curve.
327 μL of Opti-MEM medium (Gibco, cat #31985-062) were mixed with 12 μL of FuGENE® HD (Promega, cat #E2311) and incubated at rt for 5 min. Then 8.2 μL (4 μg, 0.485 μg/μL solution) of pSNAP-hGLP1R plasmid (Cisbio, cat #PSNAP-GLP1) encoding human GLP1R (NCBI Reference Sequence: NM_002062.3) fused with Cisbio's SNAP tag was added in to the Fugene HD/Opti-MEM mix, and incubated at rt for 20 min. […]

SMILES strings stand for the structures.

human GLP1R (hGLP1R), sequence (P43220 24-463): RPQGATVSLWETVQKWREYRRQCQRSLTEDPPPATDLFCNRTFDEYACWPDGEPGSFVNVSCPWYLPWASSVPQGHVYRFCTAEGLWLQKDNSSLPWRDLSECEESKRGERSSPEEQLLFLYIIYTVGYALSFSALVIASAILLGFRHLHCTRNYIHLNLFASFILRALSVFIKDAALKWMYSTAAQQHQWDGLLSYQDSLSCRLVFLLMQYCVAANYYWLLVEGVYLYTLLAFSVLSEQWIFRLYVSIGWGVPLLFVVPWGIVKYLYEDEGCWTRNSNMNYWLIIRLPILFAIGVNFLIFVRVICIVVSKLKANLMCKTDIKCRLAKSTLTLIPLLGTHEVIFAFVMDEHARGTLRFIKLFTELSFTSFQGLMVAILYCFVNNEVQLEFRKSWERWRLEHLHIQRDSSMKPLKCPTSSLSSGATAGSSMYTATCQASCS

Take `Cc1nc(CN2CCC(c3cccc4c3O[C@@](C)(c3ccc(Cl)cc3F)O4)CC2)n(C[C@@H]2CCO2)c1-c1nc(C(=O)O)c(C)o1` [Compound C-1, 2-(2-((4-((S)-2-(4-chloro-2-fluorophenyl)-2-methylbenzo[d][1,3]dioxol-4-yl)piperidin-1-yl)methyl)-4-methyl-1-(((S)-oxetan-2-yl)methyl)-1H-imidazol-5-yl)-5-methyloxazole-4-carboxylic acid]: the Emax stood at 110% and a half-maximal response (EC50) required 0.056 nM.
The corresponding values for `C[C@]1(c2ccc(Cl)cc2F)Oc2cccc(C3CCN(Cc4nc(C(F)(F)F)c(-c5nc(C(=O)O)co5)n4C[C@@H]4CCO4)CC3)c2O1` [Compound C-4, 2-(2-((4-((S)-2-(4-chloro-2-fluorophenyl)-2-methylbenzo[d][1,3]dioxol-4-yl)piperidin-1-yl)methyl)-1-(((S)-oxetan-2-yl)methyl)-4-(trifluoromethyl)-1H-imidazol-5-yl)oxazole-4-carboxylic acid] are 120% and 0.298 nM.
`CCc1nc(CN2CCC(c3cccc4c3O[C@@](C)(c3ccc(Cl)cc3F)O4)CC2)n(C[C@@H]2CCO2)c1-c1nc(C(=O)O)co1` [Compound C-5, 2-(2-((4-((S)-2-(4-chloro-2-fluorophenyl)-2-methylbenzo[d][1,3]dioxol-4-yl)piperidin-1-yl)methyl)-4-ethyl-1-(((S)-oxetan-2-yl)methyl)-1H-imidazol-5-yl)oxazole-4-carboxylic acid] displayed an Emax of 123% and an EC50 of 0.0418 nM.
For `CCc1nc(CN2CCC(c3cccc4c3O[C@@](C)(c3ccc(Cl)cc3F)O4)CC2)n(C[C@H]2CCO2)c1-c1nc(C(=O)O)co1` [Compound C-7, 2-(2-((4-((S)-2-(4-chloro-2-fluorophenyl)-2-methylbenzo[d][1,3]dioxol-4-yl)piperidin-1-yl)methyl)-4-ethyl-1-(((R)-oxetan-2-yl)methyl)-1H-imidazol-5-yl)oxazole-4-carboxylic acid] the same measures were 118% and 0.0351 nM.
For `Cc1nc(CN2CCC(c3cccc4c3O[C@@](C)(c3ccc(Cl)cc3F)O4)CC2)n(C[C@@H]2CCO2)c1-c1nc(C(=O)O)co1` [Compound C-9, 2-(2-((4-((S)-2-(4-chloro-2-fluorophenyl)-2-methylbenzo[d][1,3]dioxol-4-yl)piperidin-1-yl)methyl)-4-methyl-1-(((S)-oxetan-2-yl)methyl)-1H-imidazol-5-yl)oxazole-4-carboxylic acid] the same measures were 107% and 0.103 nM.
In turn, `CCc1oc(-c2c(C)nc(CN3CCC(c4cccc5c4O[C@@](C)(c4ccc(Cl)cc4F)O5)CC3)n2C[C@@H]2CCO2)nc1C(=O)O` [Compound C-10, 2-(2-((4-((S)-2-(4-chloro-2-fluorophenyl)-2-methylbenzo[d][1,3]dioxol-4-yl)piperidin-1-yl)methyl)-4-methyl-1-(((S)-oxetan-2-yl)methyl)-1H-imidazol-5-yl)-5-ethyloxazole-4-carboxylic acid] registered an Emax of 108% and an EC50 of 0.142 nM.
`Cc1oc(-c2nc(CN3CCC(c4cccc5c4O[C@@](C)(c4ccc(Cl)cc4F)O5)CC3)n(C[C@@H]3CCO3)c2C)nc1C(=O)O` [Compound C-12, 2-(2-((4-((S)-2-(4-chloro-2-fluorophenyl)-2-methylbenzo[d][1,3]dioxol-4-yl)piperidin-1-yl)methyl)-5-methyl-1-(((S)-oxetan-2-yl)methyl)-1H-imidazol-4-yl)-5-methyloxazole-4-carboxylic acid] showed an Emax of 114% and an EC50 of 0.575 nM.
For `Cc1c(-c2nc(C(=O)O)co2)nc(CN2CCC(c3cccc4c3O[C@@](C)(c3ccc(Cl)cc3F)O4)CC2)n1C[C@@H]1CCO1` [Compound C-13, 2-(2-((4-((S)-2-(4-chloro-2-fluorophenyl)-2-methylbenzo[d][1,3]dioxol-4-yl)piperidin-1-yl)methyl)-5-methyl-1-(((S)-oxetan-2-yl)methyl)-1H-imidazol-4-yl)oxazole-4-carboxylic acid] the same measures were 102% and 0.376 nM.
